Tests used:
Type in all cases: in vivo
corn (Zea mays) [1] = experiment: Test G Post-Emergence Protocol; conditions: Zea mays, post-emergence, 312 h; for plant injury at 15.625 g/ha: 15.625 g ai/ha, evaluated after 13 days (100=total damage to plant; 0=no damage to plant), read-out: Corn damage rating; for plant injury at 62.5 g/ha: 62.5 g ai/ha, read-out: Corn damage rating (100=total damage to plant; 0=no damage to plant); for plant injury at 62.5 g/ha / plant injury at 250 g/ha: evaluated after 13 days; for plant injury at 250 g/ha: 250 g ai/ha, read-out: damage to plant, Corn (100=total damage to plant; 0=no damage to plant)
How it was run: (§1)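 Sow in soil; grow 8 d (24/16 °C, 14 h light, 65% humidity); spray 15.625/62.5/250 g/ha in acetone:water 50:50 + 0.5% Tween 20; grow on, water twice daily; score damage 0–100 at 13 d.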

[2] = test system: redroot pigweed (Amaranthus retroflexus); experiment: Test G Post-Emergence Protocol; conditions: Amaranthus retroflexus, post-emergence, 312 h; for pest or weed control at 15.625 g/ha: 15.625 g ai/ha, evaluated after 13 days (100=total damage to plant; 0=no damage to plant), read-out: Pigweed, Redroot damage rating; for pest or weed control at 62.5 g/ha: 62.5 g ai/ha, read-out: Pigweed, Redroot damage rating (100=total damage to plant; 0=no damage to plant); for pest or weed control at 62.5 g/ha / pest or weed control at 250 g/ha: evaluated after 13 days; for pest or weed control at 250 g/ha: 250 g ai/ha, read-out: damage to plant, Pigweed, Redroot (100=total damage to plant; 0=no damage to plant)
How it was run: as §1

[3] = test system: ivy-leaved morning glory (Ipomoea hederacea); experiment: Test G Post-Emergence Protocol; conditions: Ipomoea, post-emergence, 312 h; for pest or weed control at 15.625 g/ha: 15.625 g ai/ha, evaluated after 13 days (100=total damage to plant; 0=no damage to plant), read-out: Morningglory, Ivy-leaved damage rating; for pest or weed control at 62.5 g/ha: 62.5 g ai/ha, read-out: Morningglory, Ivy-leaved damage rating (100=total damage to plant; 0=no damage to plant); for pest or weed control at 62.5 g/ha / pest or weed control at 250 g/ha: evaluated after 13 days; for pest or weed control at 250 g/ha: 250 g ai/ha, read-out: damage to plant, Morningglory, Ivy-leaved (100=total damage to plant; 0=no damage to plant)
How it was run: as §1

[4] = test system: barnyardgrass (Echinochloa crus-galli); experiment: Test G Post-Emergence Protocol; conditions: Echinochloa crus-galli, post-emergence, 312 h; for pest or weed control at 15.625 g/ha: 15.625 g ai/ha, evaluated after 13 days (100=total damage to plant; 0=no damage to plant), read-out: Barnyardgrass damage rating; for pest or weed control at 62.5 g/ha: 62.5 g ai/ha, read-out: Barnyardgrass damage rating (100=total damage to plant; 0=no damage to plant); for pest or weed control at 62.5 g/ha / pest or weed control at 250 g/ha: evaluated after 13 days; for pest or weed control at 250 g/ha: 250 g ai/ha, read-out: damage to plant, Barnyardgrass (100=total damage to plant; 0=no damage to plant)
How it was run: as §1

[5] = test system: giant foxtail (Setaria faberi); experiment: Test G Post-Emergence Protocol; conditions: Setaria faberi, post-emergence, 312 h; for pest or weed control at 15.625 g/ha: 15.625 g ai/ha, evaluated after 13 days (100=total damage to plant; 0=no damage to plant), read-out: Foxtail, Giant damage rating; for pest or weed control at 62.5 g/ha: 62.5 g ai/ha, read-out: Foxtail, Giant damage rating (100=total damage to plant; 0=no damage to plant); for pest or weed control at 62.5 g/ha / pest or weed control at 250 g/ha: evaluated after 13 days; for pest or weed control at 250 g/ha: 250 g ai/ha, read-out: damage to plant, Foxtail, Giant (100=total damage to plant; 0=no damage to plant)
How it was run: as §1

[6] = test system: velvetleaf (Abutilon theophrasti); experiment: Test G Post-Emergence Protocol; conditions: Abutilon theophrasti, post-emergence, 312 h; for pest or weed control at 15.625 g/ha: 15.625 g ai/ha, evaluated after 13 days (100=total damage to plant; 0=no damage to plant), read-out: Velvetleaf damage rating; for pest or weed control at 62.5 g/ha: 62.5 g ai/ha, read-out: Velvetleaf damage rating (100=total damage to plant; 0=no damage to plant); for pest or weed control at 62.5 g/ha / pest or weed control at 250 g/ha: evaluated after 13 days; for pest or weed control at 250 g/ha: 250 g ai/ha, read-out: damage to plant, Velvetleaf (100=total damage to plant; 0=no damage to plant)
How it was run: as §1

corn (Zea mays) [7] = experiment: Test G Pre-Emergence Protocol; conditions: Zea mays, pre-emergence, 312 h, evaluated after 13 days; for plant injury at 15.625 g/ha: 15.625 g ai/ha; for plant injury at 15.625 g/ha / plant injury at 250 g/ha: read-out: Corn damage rating (100=total damage to plant; 0=no damage to plant); for plant injury at 62.5 g/ha: 62.5 g ai/ha, 100=total damage to plant, 0=no damage to plant, read-out: plant damage rating, Corn; for plant injury at 250 g/ha: 250 g ai/ha
How it was run: (§2)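 Scores are visual damage ratings from 0 (no damage) to 100 (total plant kill), taken 13 days after treatment. Compound was sprayed one day post-sowing at 15.625, 62.5 or 250 g/ha in 50:50 acetone/water with 0.5% Tween 20.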

[8] = test system: redroot pigweed (Amaranthus retroflexus); experiment: Test G Pre-Emergence Protocol; conditions: Amaranthus retroflexus, pre-emergence, 312 h, evaluated after 13 days; for pest or weed control at 15.625 g/ha: 15.625 g ai/ha; for pest or weed control at 15.625 g/ha / pest or weed control at 250 g/ha: read-out: Pigweed, Redroot damage rating (100=total damage to plant; 0=no damage to plant); for pest or weed control at 62.5 g/ha: 62.5 g ai/ha, 100=total damage to plant, 0=no damage to plant, read-out: plant damage rating, Pigweed, Redroot; for pest or weed control at 250 g/ha: 250 g ai/ha
How it was run: as §2

[9] = test system: ivy-leaved morning glory (Ipomoea hederacea); experiment: Test G Pre-Emergence Protocol; conditions: Ipomoea, pre-emergence, 312 h, evaluated after 13 days; for pest or weed control at 62.5 g/ha: 62.5 g ai/ha, 100=total damage to plant, 0=no damage to plant, read-out: plant damage rating, Morningglory, Ivy-leaved; for pest or weed control at 250 g/ha: 250 g ai/ha, read-out: Morningglory, Ivy-leaved damage rating (100=total damage to plant; 0=no damage to plant)
How it was run: as §2

[10] = test system: barnyardgrass (Echinochloa crus-galli); experiment: Test G Pre-Emergence Protocol; conditions: Echinochloa crus-galli, pre-emergence, 312 h, evaluated after 13 days; for pest or weed control at 15.625 g/ha: 15.625 g ai/ha, read-out: Barnyard grass damage rating (100=total damage to plant; 0=no damage to plant); for pest or weed control at 62.5 g/ha: 62.5 g ai/ha, 100=total damage to plant, 0=no damage to plant, read-out: plant damage rating, Barnyardgrass; for pest or weed control at 250 g/ha: 250 g ai/ha, read-out: Barnyardgrass damage rating (100=total damage to plant; 0=no damage to plant)
How it was run: as §2

[11] = test system: giant foxtail (Setaria faberi); experiment: Test G Pre-Emergence Protocol; conditions: Setaria faberi, pre-emergence, 312 h, evaluated after 13 days; for pest or weed control at 250 g/ha: 250 g ai/ha
How it was run: as §2

[12] = test system: velvetleaf (Abutilon theophrasti); experiment: Test G Pre-Emergence Protocol; conditions: Abutilon theophrasti, pre-emergence, 312 h, evaluated after 13 days; for pest or weed control at 15.625 g/ha: 15.625 g ai/ha; for pest or weed control at 15.625 g/ha / pest or weed control at 250 g/ha: read-out: Velvetleaf damage rating (100=total damage to plant; 0=no damage to plant); for pest or weed control at 62.5 g/ha: 62.5 g ai/ha, 100=total damage to plant, 0=no damage to plant, read-out: plant damage rating, Velvetleaf; for pest or weed control at 250 g/ha: 250 g ai/ha
How it was run: as §2

[13] = read-out: Foxtail, Giant damage rating (100=total damage to plant; 0=no damage to plant)

CN1C[C@@H](c2ccc(C(F)(F)F)cc2)[C@H](C(=O)Nc2nnc[nH]2)C1=O (racemic) [Compound 1562]
plant injury at 15.625 g/ha (corn (Zea mays) [1]): 0%
plant injury at 62.5 g/ha (corn (Zea mays) [1]): 10%
plant injury at 250 g/ha (corn (Zea mays) [1]): 0%
pest or weed control at 15.625 g/ha [2]: 0%
pest or weed control at 62.5 g/ha [2]: 10%
pest or weed control at 250 g/ha [2]: 20%
pest or weed control at 15.625 g/ha [3]: 0%
pest or weed control at 62.5 g/ha [3]: 0%
pest or weed control at 250 g/ha [3]: 0%
pest or weed control at 15.625 g/ha [4]: 0%
pest or weed control at 62.5 g/ha [4]: 0%
pest or weed control at 250 g/ha [4]: 20%
pest or weed control at 15.625 g/ha [5]: 0%
pest or weed control at 62.5 g/ha [5]: 0%
pest or weed control at 250 g/ha [5]: 20%
pest or weed control at 15.625 g/ha [6]: 0%
pest or weed control at 62.5 g/ha [6]: 0%
pest or weed control at 250 g/ha [6]: 0%
plant injury at 15.625 g/ha (corn (Zea mays) [7]): 0%
plant injury at 62.5 g/ha (corn (Zea mays) [7]): 0%
plant injury at 250 g/ha (corn (Zea mays) [7]): 0%
pest or weed control at 15.625 g/ha [8]: 0%
pest or weed control at 62.5 g/ha [8]: 0%
pest or weed control at 250 g/ha [8]: 0%
pest or weed control at 62.5 g/ha [9]: 0%
pest or weed control at 250 g/ha [9]: 0%
pest or weed control at 15.625 g/ha [10]: 0%
pest or weed control at 62.5 g/ha [10]: 0%
pest or weed control at 250 g/ha [10]: 20%
pest or weed control at 250 g/ha [11, 13]: 30%
pest or weed control at 15.625 g/ha [12]: 0%
pest or weed control at 62.5 g/ha [12]: 0%
pest or weed control at 250 g/ha [12]: 0%

CN1C[C@@H](c2ccc(C(F)(F)F)cc2)[C@H](C(=O)Nc2cccc(Cl)c2C#N)C1=O (racemic) [Compound 1645]
plant injury at 15.625 g/ha (corn (Zea mays) [1]): 0%
plant injury at 62.5 g/ha (corn (Zea mays) [1]): 0%
plant injury at 250 g/ha (corn (Zea mays) [1]): 0%
pest or weed control at 15.625 g/ha [2]: 0%
pest or weed control at 62.5 g/ha [2]: 40%
pest or weed control at 250 g/ha [2]: 40%
pest or weed control at 15.625 g/ha [3]: 0%
pest or weed control at 62.5 g/ha [3]: 0%
pest or weed control at 250 g/ha [3]: 0%
pest or weed control at 15.625 g/ha [4]: 0%
pest or weed control at 62.5 g/ha [4]: 20%
pest or weed control at 250 g/ha [4]: 70%
pest or weed control at 15.625 g/ha [5]: 0%
pest or weed control at 62.5 g/ha [5]: 70%
pest or weed control at 250 g/ha [5]: 80%
pest or weed control at 15.625 g/ha [6]: 0%
pest or weed control at 62.5 g/ha [6]: 0%
pest or weed control at 250 g/ha [6]: 0%
plant injury at 15.625 g/ha (corn (Zea mays) [7]): 0%
plant injury at 62.5 g/ha (corn (Zea mays) [7]): 0%
plant injury at 250 g/ha (corn (Zea mays) [7]): 0%
pest or weed control at 15.625 g/ha [8]: 0%
pest or weed control at 62.5 g/ha [8]: 10%
pest or weed control at 250 g/ha [8]: 10%
pest or weed control at 15.625 g/ha ([9]; 15.625 g ai/ha, read-out: Morning-glory, Ivy-leaved damage rating (100=total damage to plant; 0=no damage to plant)): 0%
pest or weed control at 62.5 g/ha [9]: 0%
pest or weed control at 250 g/ha [9]: 0%
pest or weed control at 15.625 g/ha [10]: 0%
pest or weed control at 62.5 g/ha [10]: 40%
pest or weed control at 250 g/ha [10]: 50%
pest or weed control at 15.625 g/ha ([11]; 15.625 g ai/ha, read-out: Foxtail, Giant damage rating (100=total damage to plant; 0=no damage to plant)): 0%
pest or weed control at 62.5 g/ha ([11]; 62.5 g ai/ha, 100=total damage to plant, 0=no damage to plant, read-out: plant damage rating, Foxtail, Giant): 30%
pest or weed control at 250 g/ha [11, 13]: 60%
pest or weed control at 15.625 g/ha [12]: 0%
pest or weed control at 62.5 g/ha [12]: 0%
pest or weed control at 250 g/ha [12]: 10%
